{"source": "patent US7507727B2", "about": "“Substituted quinobenzoxazine analogs and methods of using thereof” (Cylene Pharmaceuticals, Inc., priority 2003, dated 2009)", "key": {"[1]": {"assay": "Pharmacokinetic study in mice, intravenous", "assay_type": "in vivo", "conditions": "25 mg/kg intravenous", "source_text": "Pharmacokinetic studies for evaluating pharmacokinetic properties of compounds are designed as follows. Male animals (mouse, Balb/c or rat, SD) aged five to six weeks and/or rats weighing more than 200 grams will be used for testing. One group will be untreated and samples taken to be used as a base line. The other three groups will be treated and administered a single dose of compounds by intravenous injection.\nDosing Procedure. Compounds will be administered via IV (lateral tail vein), IP or PO. Animals will be dosed in a systematic order that distributes the time of dosing similarly across all groups. For IP and PO dosing, animals will be manually restrained. For IV bolus dosing or short term IV infusion (one minute), animals will be mechanically restrained but not sedated. Disposable sterile syringes will be used for each animal/dose.\nApproximately 0.5 ml of blood will be collected from the naive animals via cardiac puncture prior to the first dose. Terminal blood samples (0.5 ml) will be collected via cardiac puncture from two animals per group per time point according to the above chart. All samples will be placed in tubes containing lithium heparin as anticoagulant and mixed immediately by inverting. They will be centrifuged and the plasma flash frozen in liquid nitrogen, stored at −70° C. or greater and analyzed for drug levels.\nA pharmacokinetic study to determine the time course of CX-3543 disposition was conducted in mice following intravenous administered of 25 mg/kg of CX-3543. Regular sampling was undertaken throughout a 24 hour period after IV dose administration, and the key derived pharmacokinetic parameters were derived. FIG. 11 provides the graphical representation of the pharmacokinetic profile of CX-3543 from which key parameters (Table 11) were obtained.\nIn FIG. 11, Cmax is the maximum CX-3543 plasma concentration attained (expressed in ng/ml); AUC0-inf is the area under the CX-3543 plasma concentration versus time curve, extrapolated from time zero to infinity (expressed in ng.hr/ml); T1/2 is the terminal half life of CX-3543 (expressed in hr); Vdss is the volume of distribution of CX-3543 at steady state (expressed in L/kg); and ClS is the systemic clearance of CX-3543 (expressed in L/hr/kg)."}, "Formulated solubility": {"assay": "Formulated solubility", "assay_type": "physicochemical"}, "[2]": {"assay": "Metabolic stability and metabolite profiling in hepatocytes", "assay_type": "in vitro ADME, human", "protocol": "Metabolic Stability Assay and Metabolite Profiling. A human hepatocyte assay to profile metabolites was carried out using commercially available kits and following standard procedures. The metabolic stability of CX-3543 with human hepatocytes was evaluated following incubation at 0, 30, 60, and 120 minutes at 1 and 20 μM. Consumption of the parent compound and the appearance of metabolites were carefully monitored, and mass spectrometer product ion scans were conducted on potential metabolite peaks to define the metabolite fragmentation pattern.\nThe protocol is designed to determine the stability of a new chemical entity in the presence of hepatocytes (human, rat, dog, monkey) in in vitro incubations. The test article will be incubated with hepatocytes and suitable media for various times at 37° C. The reaction mixtures will be extracted and analyzed by LC/MS/MS for the parent compound and anticipated metabolites. If applicable, a half-life will be calculated for the consumption of the test article. Metabolism controls will be run for comparison of the half-life values with that obtained for the test article. The metabolism controls are tolbutamide, desipramine and naloxone, and these compounds have defined pharmacokinetics corresponding to low, moderate and high in vivo clearance values, respectively.\nMetabolic Stability Study. Generally, solutions of the test compounds are prepared along with a cocktail solution of metabolism controls that are intended to provide a reference for enzyme activity. The reactions are initiated by combining these pre-warmed solutions with hepatocyte suspensions and with a media control solution. Control zero samples are taken from these reactions immediately after initiation. Additional samples are taken at appropriate time points. Each sample is immediately placed in a terminating solution (acidified acetonitrile containing internal standard) to stop the reaction. Hepatocyte blank suspensions and test compound standard solutions are prepared.\nSamples and standards for the test compound as well as appropriate blanks are subjected to a custom sample preparation procedure and analyzed for the parent and/or metabolite form of the test compound using high-performance liquid chromatography coupled with tandem mass spectrometry. Samples and standards for the metabolism controls are subjected to the analytical method described herein. Where Krebs Henseleit buffer is added, the buffer is bubbled with 5% CO2 in air at room temperature for 5-10 minutes before adding BSA to a final concentration of 0.2% w/v. The volume of terminating solution and the method of sample preparation will be determined for the test article during method development.\nTest Article/Media Solution. A solution of the test article will be prepared by adding an appropriate volume of the stock solution to 0.2% BSA in Krebs Henseleit buffer equilibrated with 5% CO2 in air. The final concentration will be 20 μM and the final assay concentration at initiation of the reactions will be […].\nMetabolism Controls/Media Solution. A solution of tolbutamide, desipramine and naloxone will be prepared by adding an appropriate volume of each 10 mM stock solution to 0.2% BSA in Krebs Henseleit buffer equilibrated with 5% CO2 in air. […]\nHepatocyte Suspension Solution. […] During the final step of the procedure, the viability of the cells will be determined using the method of trypan blue exclusion. […]"}, "[3]": {"conditions": "male, Balb/c, mouse, plasma, iv, 25 mg/kg"}}}
{"smiles": "CN1CCCC1CCNC(=O)c1cn2c3c(c(N4CCC(c5cnccn5)C4)c(F)cc3c1=O)Oc1cc3ccccc3cc1-2", "note": "(centres unmarked) [CX-3543]", "values": [{"measurement": "ClS", "setting": "[1]", "value": 20.5, "unit": "mL/min/kg"}, {"measurement": "Vd", "setting": "[1]; male, Balb/c, mouse, plasma, read-out: Vdss", "value": 7.26, "unit": "L/kg"}, {"measurement": "AUC(0-inf)", "setting": "[1]; [3]", "value": "~20300", "unit": "ng·h/mL"}, {"measurement": "Cmax", "setting": "[1]; [3]", "value": "~5350", "unit": "ng/mL"}, {"measurement": "half-life", "setting": "[1]; [3]", "value": "~4.6", "unit": "h"}, {"measurement": "solubility", "setting": "Formulated solubility", "value": "~20", "unit": "mg/mL"}, {"measurement": "metabolites in the hepatocyte incubation medium", "setting": "[2]; 0 vs 120 min", "value": "no single major metabolite is present"}, {"measurement": "consumption by hepatocytes", "setting": "[2]; 1 uM", "value": "very slowly"}, {"measurement": "original drug remaining", "setting": "[2]; at or below 12 uM", "value": "about 60%"}, {"measurement": "consumption by hepatocytes", "setting": "[2]; concentrations from about 12-20 uM", "value": "moderately to quickly"}, {"measurement": "Km", "setting": "[2]; human, human hepatocytes (suspension), read-out: apparent Km of consumption by hepatocytes", "value": "> 20", "unit": "µM"}]}
